Test results reported in US10913733B2, “Substituted piperidines thiazolyl acetamides as glycosidase inhibitors and uses thereof” (priority 2015, dated 2021).

The compounds below were run against human O-GlcNAcase (Homo sapiens (Human), UniProt O60502) (assay: Assay for determination of KI values for inhibition of O-GlcNAcase activity). Settings: purified human O-GlcNAcase 0.7 nM; substrate 2 mM 4-Methylumbelliferyl N-acetyl-β-D-glucosaminide; pH 7.0; room temperature; Cheng-Prusoff; read-out: hOGA Ki.
Format: biochemical
Experimental: Assay for Determination of KI Values for Inhibition of O-GlcNAcase Activity
Experimental procedure for kinetic analyses: Enzymatic reactions were carried out in a reaction containing 50 mM NaH2PO4, 100 mM NaCl and 0.1% BSA (pH 7.0) using 2 mM 4-Methylumbelliferyl N-acetyl-β-D-glucosaminide dihydrate (Sigma M2133) dissolved in ddH2O, as a substrate. The amount of purified human O-GlcNAcase enzyme used in the reaction was 0.7 nM. Test compound of varying concentrations was added to the enzyme prior to initiation of the reaction. The reaction was performed at room temperature in a 96-well plate and was initiated with the addition of substrate. The production of fluorescent product was measured every 60 sec for 45 min with a Tecan Infinite M200 plate-reader with excitation at 355 nm and emission detected at […], with 4-Methylumbelliferone (Sigma M1381) used to produce a standard curve. The slope of product production was determined for each concentration of compound tested and plotted, using standard curve fitting algorithms for sigmoidal dose response curves. The values for a four parameter logistic curve fit of the data were determined. KI values were determined using the Cheng-Prusoff equation; the Km of O-GlcNAcase for substrate was 0.2 mM.

human O-GlcNAcase, sequence (O60502 whole entry): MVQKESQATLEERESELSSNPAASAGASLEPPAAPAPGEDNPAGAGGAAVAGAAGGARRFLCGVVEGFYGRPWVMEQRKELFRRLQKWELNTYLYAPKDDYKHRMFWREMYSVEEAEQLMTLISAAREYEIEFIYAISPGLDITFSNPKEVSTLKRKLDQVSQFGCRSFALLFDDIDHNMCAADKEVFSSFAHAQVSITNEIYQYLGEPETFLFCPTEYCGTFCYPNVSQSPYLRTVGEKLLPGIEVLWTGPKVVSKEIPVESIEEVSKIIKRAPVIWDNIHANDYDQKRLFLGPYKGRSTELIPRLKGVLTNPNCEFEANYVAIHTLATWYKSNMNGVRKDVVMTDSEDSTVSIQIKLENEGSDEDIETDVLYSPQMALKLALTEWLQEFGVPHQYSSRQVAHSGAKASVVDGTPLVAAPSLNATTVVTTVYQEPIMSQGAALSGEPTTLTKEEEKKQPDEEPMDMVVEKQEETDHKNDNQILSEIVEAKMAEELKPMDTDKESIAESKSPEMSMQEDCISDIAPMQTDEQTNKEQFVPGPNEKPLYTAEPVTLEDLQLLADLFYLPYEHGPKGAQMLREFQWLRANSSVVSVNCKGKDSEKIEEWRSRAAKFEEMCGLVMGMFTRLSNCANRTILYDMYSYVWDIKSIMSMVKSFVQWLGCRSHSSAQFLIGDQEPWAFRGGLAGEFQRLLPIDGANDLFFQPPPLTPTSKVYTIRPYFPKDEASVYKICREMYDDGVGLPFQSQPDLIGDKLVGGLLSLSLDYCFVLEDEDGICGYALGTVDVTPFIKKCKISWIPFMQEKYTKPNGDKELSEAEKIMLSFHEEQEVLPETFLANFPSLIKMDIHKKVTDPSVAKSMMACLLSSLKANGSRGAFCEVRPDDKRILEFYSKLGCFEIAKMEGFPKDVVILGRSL

SMILES | Ki [nM]
COc1ccc(C=C2CCN(Cc3cnc(NC(C)=O)s3)CC2)cc1OC [Example 1, N-(5-((4-(3,4-dimethoxybenzylidene)piperidin-1-yl)methyl)thiazol-2-yl)acetamide] | 0.392
CC(=O)Nc1ncc(CN2CCC(=Cc3ccc(F)nc3)CC2)s1 [Example 2, N-(5-((4-((6-fluoropyridin-3-yl)methylene)piperidin-1-yl)methyl)thiazol-2-yl)acetamide] | 2.08
CC(=O)Nc1ncc(CN2CCC(=Cc3ccc(O)nc3)CC2)s1 [Example 3, N-(5-((4-((6-hydroxypyridin-3-yl)methylene)piperidin-1-yl)methyl)thiazol-2-yl)acetamide] | 1.09
CC(=O)Nc1ncc(CN2CCC(=Cc3ccc(OC(=O)OC(C)(C)C)cc3)CC2)s1 [Example 5, 4-((1-((2-acetamidothiazol-5-yl)methyl)piperidin-4-ylidene)methyl)phenyl tert-butyl carbonate] | 3.53
CC(=O)Nc1ncc(CN2CCC(=Cc3ccc(N)nc3)CC2)s1 [Example 6, N-[5-({4-[(6-aminopyridin-3-yl)methylidene]piperidin-1-yl}methyl)-1,3-thiazol-2-yl]acetamide] | 0.635
CC(=O)Nc1ncc(CN2CCC(=Cc3cccc(CO)c3)CC2)s1 [Example 7, N-(5-((4-(3-(hydroxymethyl)benzylidene)piperidin-1-yl)methyl)thiazol-2-yl)acetamide] | 0.69
CC(=O)Nc1ncc(CN2CCC(=Cc3cn[nH]c3)CC2)s1 [Example 8, N-(5-((4-((1H-pyrazol-4-yl)methylene)piperidin-1-yl)methyl)thiazol-2-yl)acetamide] | 0.387
CC(=O)Nc1ncc(CN2CCC(=Cc3ccc(C(N)=O)cc3)CC2)s1 [Example 9, 4-((1-((2-acetamidothiazol-5-yl)methyl)-piperidin-4-ylidene)methyl)benzamide] | 0.294
CC(=O)Nc1ncc(CN2CCC(=Cc3cccc(CC(N)=O)c3)CC2)s1 [Example 10, 2-(3-((1-((2-acetamidothiazol-5-yl)methyl)-piperidin-4-ylidene)methyl)phenyl) acetamide] | 0.614
CC(=O)Nc1ncc(CN2CCC(=Cc3ccc(OC(F)(F)F)cc3)CC2)s1 [Example 11, N-(5-((4-(4-(trifluoromethoxy)benzylidene)-piperidin-1-yl)methyl)thiazol-2-yl)acetamide] | 3.15
CCc1ccc(C=C2CCN(Cc3cnc(NC(C)=O)s3)CC2)cc1 [Example 12, N-(5-((4-(4-ethylbenzylidene)piperidin-1-yl)methyl)thiazol-2-yl)acetamide] | 0.703
CC(=O)Nc1ncc(CN2CCC(=Cc3ccc(C)cc3)CC2)s1 [Example 13, N-(5-((4-(4-methylbenzylidene)piperidin-1-yl)methyl)thiazol-2-yl)acetamide] | 0.741
CCOc1ccc(C=C2CCN(Cc3cnc(NC(C)=O)s3)CC2)cc1 [Example 14, N-(5-((4-(4-ethoxybenzylidene)piperidin-1-yl)methyl)thiazol-2-yl)acetamide] | 1.45
CC(=O)Nc1ncc(CN2CCC(=Cc3cncnc3)CC2)s1 [Example 15, N-(5-((4-(pyrimidin-5-ylmethylene)piperidin-1-yl)methyl)thiazol-2-yl)acetamide] | 3.37
COc1cccc(C=C2CCN(Cc3cnc(NC(C)=O)s3)CC2)c1OC [Example 16, N-[5-({4-[(2,3-dimethoxyphenyl)methylidene]piperidin-1-yl}methyl)-1,3-thiazol-2-yl]acetamide] | 3.4
CC(=O)Nc1ncc(CN2CCC(=Cc3ccc(S(=O)(=O)N(C)C)cc3)CC2)s1 [Example 17, N-(5-((4-(4-(N,N-dimethylsulfamoyl)benzylidene)piperidin-1-yl)methyl)thiazol-2-yl)acetamide] | 0.0954
CC(=O)Nc1ncc(CN2CCC(=Cc3ccc4[nH]ccc4c3)CC2)s1 [Example 18, N-(5-{[4-(1H-indol-5-ylmethylidene)piperidin-1-yl]methyl}-1,3-thiazol-2-yl)acetamide] | 0.427
